The values below come from PMC8899577, “Targeting the anti-apoptotic Bcl-2 family proteins: machine learning virtual screening and biological evaluation of new small molecules” (Theranostics, 2022).

Assay [1] deals with Bcl-2 (Homo sapiens, UniProt P10415). The assay is described as follows: SPR binding to immobilized Bcl-2. The settings on record: SPR, 25 °C, 2-site fit, highest affinity site. How it is done:
(§1) FastStep experiments were performed with a SensiQ Pioneer apparatus. Bcl-2 immobilization on COOH5 sensorchips was carried out essentially as previously reported, [40]. All the experiments were carried out at 25 °C in degassed HEPES 20 mM, pH 7.4, NaCl 150 mM, 0.005% surfactant P20 + 2% DMSO (HBSP2%D). […] Each sensorgram is the average of at least three experiments. The decrease in Response Units (RU) after 165 s indicates analyte dissociation from the immobilized Bcl-2 upon HSBP2%D buffer injection. Control SPR experiments were carried out measuring sensorgrams on Bcl-xL and Mcl-1 (ligands) immobilized on COOH5 sensorchips as previously reported at 25 °C in degassed HBSP2%D buffer. […] Each sensorgram is the average of at least three experiments. The decrease in RU after 180 s indicates analyte dissociation from the immobilized ligands upon HSBP2%D buffer injection. Kinetic evaluation of the sensorgrams was carried out using the Qdat 4.0 program; best fittings were obtained with 2 sites and indicated in red (reported KD values refer to dissociation constants of the highest affinity site).
Figure 2 SPR analysis of the interaction between putative inhibitors of Bcl-2 anti-apoptotic members and Bcl-2 protein. Bcl-2 was immobilized via amine coupling onto a COOH5 sensorchip; Bcl-2 family inhibitors (analytes) were injected at a flow rate = 100 μL/min, at the following concentrations. 0-30 s: 0.625 μM; 31-60 s: 1.25 μM; 61-90 s: 2.5 μM; 91-120 s: 5 μM; 121-150 s: 10 μM; 151-165 s: 20 μM. The increase in Response Units (RU) relative to baseline indicates complex formation between the immobilized Bcl-2 ligand and the analytes upon Bcl-2 family inhibitors injection. The decrease in RU after 165 s indicates analyte dissociation from the immobilized Bcl-2 upon buffer injection. Full fittings with 2 sites are indicated in red. The fitted KD values are the following.

The subject of assay [2] is M14 cells. The experiment in a line: Western blot of PARP1 cleavage, M14. It counts as cell-based, Human. To be noted: 72 h. How it is done: (§2) Western blot analyses of total protein extracts were performed as previously described. Immunodetection was performed using antibodies directed to poly (ADP-ribose) polymerase (PARP; BD Biosciences San Diego, CA, USA), LC3B (Cell Signaling Technology, Danvers, MA), HSP72/73 (Calbiochem, EMD Biosciences, La Jolla, CA), Bcl-2 (SC-509, Santa Cruz Biotechnology Inc, Dallas, TX, USA), Bcl-xL (SC-271121, Santa Cruz Biotechnology Inc), Mcl-1 (SC-12756, Santa Cruz Biotechnology Inc) α-tubulin (Santa Cruz Biotechnology Inc) actin (Sigma-Aldrich, St. Louis, Missouri, USA). Anti-rabbit or anti-mouse immunoglobulin G-horseradish peroxidase-conjugated antibodies (Amersham Biosciences, Freiburg, Germany) were used as secondary antibody. Images were acquired by Image Lab Software (Bio-Rad, Hercules, CA, USA), using a ChemiDoc System instrument (Bio-Rad). The densitometric evaluation was performed using Image J software and normalized with relative controls.
Figure 5 Analysis of apoptosis induction by IS20 and IS21 in leukemia, melanoma and NSCLC cells. […] (A-F) Reported images are representative of two independent experiments with similar results. HSP72/73 or α-Tubulin are shown as loading and transferring control. (G) Flow cytometric quantification of cells in the subG1 peak of cell cycle distribution by propidium iodide staining in HL60 cell line treated with IS20 or IS21 (20 μM for 24 h) and in M14, H1299 and MDA-MB-231 cell lines treated with IS20 or IS21 (20 μM for 72 h). Data are reported as mean ± SD of three independent experiments. p-values were calculated between control (Ctrl) and treated cells, * p < 0.05. (H) Flow cytometric quantification of cells in the subG1 peak by propidium iodide staining in M14 and H1299 cell lines treated with IS20 or IS21 (20 μM, 72 h) in presence or absence of the pan caspase inhibitor z-VAD (50 μM). p-values were calculated between treated control (Ctrl) cells, # p < 0.01, ## p < 0.001 or between cells treated with IS20 or IS21 alone or in combination with z-VAD, * p < 0.05, ** p < 0.005. (G-H) Data are reported as mean of two (H) or three (G) experiments ± SD.

For assay [3], the target named is Mcl-1 (Homo sapiens, UniProt Q07820). The assay is described as follows: SPR binding to immobilized Mcl-1. To be noted: analyte 0.3-30 µM. On the procedure:
as §1
Figure 3 SPR analysis of the interaction between IS20 or IS21 and Bcl-xL and Mcl-1 proteins. SPR experiments were carried out measuring sensorgrams on Bcl-xL and Mcl-1 (ligands) immobilized on COOH5 sensorchips at 25 °C in degassed HBSP2%D buffer. IS20 and IS21 (analytes) were injected at a flow rate = 30 μL/min, at the following concentrations: 0.3 μM (only for Mcl-1 experiments); 1 μM; 3 μM; 10 μM; 30 μM. Each sensorgram is the average of at least three experiments. The decrease in RU (Response Units) after 180 s indicates analyte dissociation from the immobilized ligands upon HSBP2%D buffer injection. The fitted KD values for Bcl-xL are the following. IS20: 0.42 ± 0.09 μM and IS21: 0.51 ± 0.17 μM. The fitted KD values for Mcl-1are the following. IS20: 3.9 ± 0.30 μM and IS21: 1.16 ± 0.14 μM;
In general terms: In SPR one partner is held on a chip, and binding of the other changes the refractive index at the surface.

Assay [4] has as its system M14 cells. The experiment in a line: Western blot of LC3B-I/LC3B-II (autophagy), M14. It counts as cell-based, Human. The settings on record: 72 h. How it is done: as §2
Figure 6 Analysis of autophagosome accumulation in M14 and H1299 cells after treatment with IS20 or IS21. Western blot analysis of LC3B-I and LC3B-II protein levels in (A) M14, and (B) H1299 cell lines untreated (Ctrl) or treated with IS20 or IS21 for 72 h at the indicated concentrations. (C) Western blot analysis of LC3B-I and LC3B-II levels in HL60 and U937 cell lines untreated (Ctrl) or treated with IS20 or IS21 (20 μM for 24 h). (A-C) Reported images are representative of two independent experiments with similar results. HSP72/73, Actin or α-Tubulin are shown as loading and transferring control. […] Ratio of LC3B-II on LC3B-I levels, after normalization on HSP72/73, Actin or α-Tubulin, is quantified by densitometric analysis. (D) (Upper panels) Representative images and (lower panels) relative quantification of fluorescence microscopic analysis of LC3B puncta positive cells in M14 EGFP-LC3B and H1299 EGFP-LC3B transfected cells, treated with IS20 or IS21 (20 µM for 72h). […] Cells with more than 10 puncta were considered autophagy-positive. p-values were calculated between untreated (Ctrl) and treated cells, * p < 0.05.

In general, Kd refers to a measure of binding affinity in units of concentration.

Chain of Bcl-2 (P10415 whole entry): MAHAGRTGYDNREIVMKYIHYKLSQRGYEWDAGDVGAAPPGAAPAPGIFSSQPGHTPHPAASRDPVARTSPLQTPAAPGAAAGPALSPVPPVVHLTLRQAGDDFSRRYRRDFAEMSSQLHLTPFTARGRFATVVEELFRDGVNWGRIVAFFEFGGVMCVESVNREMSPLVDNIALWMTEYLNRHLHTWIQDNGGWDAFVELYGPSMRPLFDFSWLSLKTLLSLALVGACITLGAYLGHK
Chain of Mcl-1 (Q07820 whole entry): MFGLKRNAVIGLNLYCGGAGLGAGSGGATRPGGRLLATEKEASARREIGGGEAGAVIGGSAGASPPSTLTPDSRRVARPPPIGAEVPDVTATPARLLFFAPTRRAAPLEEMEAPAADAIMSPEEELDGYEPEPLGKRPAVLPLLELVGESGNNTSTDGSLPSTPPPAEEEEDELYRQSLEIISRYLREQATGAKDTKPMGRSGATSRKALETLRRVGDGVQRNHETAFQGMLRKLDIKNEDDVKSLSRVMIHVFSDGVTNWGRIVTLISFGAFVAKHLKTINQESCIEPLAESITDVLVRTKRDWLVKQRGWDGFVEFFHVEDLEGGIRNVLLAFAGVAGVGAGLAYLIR

In the case of `CC(C)(C)c1ccc(C=NN2CCN(Cc3ccccc3Cl)CC2)cc1` [IS1], binding in assay [1] was put at a Kd of 480 ± 110 nM.
Same read-out and setting: to `COc1ccc(-c2cc(C(F)F)nc(N3CCN(Cc4ccccc4C)CC3)n2)cc1OC` [ISP] belongs 770 ± 140 nM.
For the molecule `CC1(C)CCC(CN2CCN(c3ccc(C(=O)NS(=O)(=O)c4ccc(NCC5CCOCC5)c([N+](=O)[O-])c4)c(Oc4cnc5[nH]ccc5c4)c3)CC2)=C(c2ccc(Cl)cc2)C1` [ABT-199, venetoclax, reference compound], the “PARP1 cleavage, M14” value in assay [2] is “PARP1 cleavage”. The “interaction with Mcl-1 (SPR)” value in assay [3] is given as “negligible interaction”.
As for `CC1(C)CCC(c2ccc(Cl)cc2)=C(CN2CCN(c3ccc(C(=O)NS(=O)(=O)c4ccc(N[C@H](CCN5CCOCC5)CSc5ccccc5)c(S(=O)(=O)C(F)(F)F)c4)cc3)CC2)C1` [ABT-263, navitoclax, reference compound], in assay [2], the “PARP1 cleavage, M14” value is given as “PARP1 cleavage”. Also, the “ratio of LC3B-II on LC3B-I / LC3B-II protein level, M14” value in assay [4] is “increased”.
The molecule `O=C(CN1CCN(Cc2ccccc2Cl)CC1)N/N=C/c1ccccc1C(F)(F)F` [IS27] had a Kd in assay [1] of 4600 ± 900 nM.
In assay [1], `CC(C)(C)c1ccc(-c2nnc(SCc3ccccc3F)n2N)cc1` [IS29] displayed a Kd of 3400 ± 1100 nM.
